ChEMBL document CHEMBL2086331, “Novel triazolopyridylbenzamides as potent and selective p38α inhibitors” (Bioorg Med Chem Lett, 2012)

Tested on: Blood
Test: Inhibition of LPS-induced TNFalpha production in human whole blood
Assay type: functional, tissue-based

Row | IC50 [nM] | Compound
1 | 670 | Cc1ccc(C(=O)NC2CC2)cc1-c1ccn2c(C3CCC3)nnc2c1
2 | 105 | Cc1c(F)cc(C(=O)NC2CC2)cc1-c1ccn2c(C(C)(C)O)nnc2c1
3 | 84 | Cc1c(F)cc(C(=O)NC2CC2)cc1-c1ccn2c(C(C)(C)N(C)C)nnc2c1
4 | > 5000 | Cc1c(F)cc(C(=O)NC2CC2)cc1-c1c(F)cn2c(-c3ccncc3Cl)nnc2c1F
5 | 257 | COC(C)c1nnc2cc(-c3cc(C(=O)NC4CC4)cc(F)c3C)ccn12 (configuration not stated)
6 | 516 | Cc1ccc(C(=O)NC2CC2)cc1-c1c(F)cn2c(C(C)(C)C)nnc2c1F
7 | 7.2 | Cc1c(F)cc(C(=O)NC2CC2)cc1-c1ccn2c(-c3ccccc3Cl)nnc2c1
8 | 20 | Cc1ccc(C(=O)NC2CC2)cc1-c1ccn2c(-c3ccccc3Cl)nnc2c1
9 | 25 | Cc1ccc(C(=O)NC2CC2)cc1-c1ccn2c(C3CC3)nnc2c1
10 | 98 | Cc1ccc(C(=O)NC2CC2)cc1-c1ccc2c(N3CCCCC3)noc2c1
11 | 1470 | Cc1c(F)cc(C(=O)NC2CC2)cc1-c1c(F)cn2c(C3CC3)nnc2c1F
12 | 1060 | COC(C)c1nnc2cc(-c3cc(C(=O)NC4CC4)ccc3C)ccn12 (configuration not stated)
13 | 1840 | Cc1c(F)cc(C(=O)NC2CC2)cc1-c1ccn2c(C(N)=O)nnc2c1
14 | 305 | Cc1ccc(C(=O)NC2CC2)cc1-c1ccn2c(-c3ccncc3Cl)nnc2c1
15 | 213 | Cc1c(F)cc(C(=O)NC2CC2)cc1-c1ccn2c(C3CC3)nnc2c1
16 | 467 | Cc1c(F)cc(C(=O)NC2CC2)cc1-c1c(F)cn2c(C(C)C)nnc2c1F
17 | 84 | Cc1c(F)cc(C(=O)NC2CC2)cc1-c1ccn2c(-c3ccncc3Cl)nnc2c1
